Data set [1] deals with THP 1 dual-KI-hSTING^WT(R232) reporter cells. Nature of the data set: Cellular viability of chelator-treated THP 1 dual-KI-hSTING WT(R232) reporter cells. In kind it is cell-based, human. The text has this:
(§1) FIG. 18: Chelating metal ions to inhibit cGAS-STING-Type I IFN pathway. a) Molecular structure of representative chelators that could inhibit cGAS-STING-Type I IFN pathway. b-c) Dose-inhibition curves of the IFN-I response (b) and NF-kB inflammation response (c) by the indicated compounds in DNA/lipofectamine 2000 (ThermoFisher, 11668027) treated THP 1 dual-KI-hSTING^WT(R232) reporter cells (Invivogen, thpd-r232). d) Cellular viability of b-c. e) Dose-inhibition curves of the IFN-I response by the indicated compounds in DNA/lipofectamine 2000 (ThermoFisher, 11668027) treated THP 1-ISG hSTING^HAQ reporter cells (Invivogen, thp-isg). […]
(§2) Given the interesting function of metal ions on modulating innate immune response in our finding, we further evaluated whether chelating metal ions could inhibit the according innate immune pathways, which may be used to treat autoimmune diseases, such as Systemic lupus erythematosus, Aicardi-Goutières syndrome, Acute pancreatitis Age-dependent macular degeneration, Alcoholic liver disease, Liver fibrosis, Metastasis, Myocardial infarction, Nonalcoholic steatohepatitis (NASH), Parkinson's disease, Polyarthritis/fetal and neonatal anemia, Sepsis, inflammatory bowel disease, multiple sclerosis, etc. […] By a ISRE induced luminescence, we could read the degree of inhibition. […]

Data set [2] relates to cGAS-STING-Type I IFN pathway. Nature of the data set: Inhibition of DNA/lipofectamine-induced IFN-I response in THP 1 dual-KI-hSTING WT(R232) reporter cells. The data set is classed as cell-based, human. To be noted: DNA/lipofectamine complex challenging, ISRE induced luminescence.
From the text: as §1, §2

Data set [3] relates to CT26 colon cancer cells. Nature of the data set: CT26 colon tumor model, metal ion plus STING agonist CDA, intratumoral. The conditions noted are these: CT26 tumor-bearing mice. In kind it is in vivo, Balb/c mice. As for the experimental part:
FIG. 6: Enhanced STING activation and cancer therapy efficacy by Co^2+ and Mn^2+ in vivo. a) individual tumor growth curve after three dose of intratumor injection of the indicated formulation at day 9, 12, 15 after tumor inoculation. b) Serum IFN-beta concentration 8 h after the 1st dose of the indicated formulation. c-d) individual tumor growth (c) and survival (d) of the tumor bearing mice after treated with the indicated formulations.
FIG. 7: Enhanced STING activation by Co^2+ and Mn^2+ led to improved antigen specific immune response after in vivo. a) the percentage of AH1-specific CD8+ T cells among PBMC on day 16. b) IFN-γ secreting cells counts per 5E4 PBMCs after stimulation with AH1 peptides at day 22. c-e) timeline (c). tumor growth curve (d) and AH1-specific CD8+ T cells percentage in spleen CD8+ T cells (e) in tumor re-challenging study starting from day 81. […]
We examined whether the enhanced type-I IFN response in vitro could benefit cancer treatment in vivo. We evaluated the combination of metal ions and STING agonist in a murine tumor model.
To study the mechanisms of action for the improved cancer therapy efficacy, we evaluated the treated animals for antigen-specific T cell responses and performed tumor re-challenging study after 81 days of the initial treatment.

Data set [4] has as its system CT26 colon cancer cells.
Experimental: When tumor size reach ˜60 mm^3, 2 doses of 25 μg/dose cdAMP(ps)2 were administrated intra-tumorally on days 10 and 15. To evaluate antigen-specific immune responses, PBMCs were collected for tetramer staining on day 17 and ELISPOT analysis with AH1 antigen peptides on day 22.
Female Balb/c mice of age 6-8 weeks (Jackson Laboratories) were inoculated with 1×10^5 CT26 colon cancer cells. When tumor size achieved ˜100 mm^3, 2 doses of 25 μg cdAMP(ps)2 in different formulations were administrated via intra-tumoral route on day 10 and day 15. Tumor size and survival were monitored every 2 or 3 days. Tumor size was calculated based on equation: volume=length×width^2×0.5. Animals were euthanized when the tumor reached 1.5 cm in diameter or when animals became moribund with severe weight loss or ulceration. At day 17, the percentages of tumor antigen-specific CD8α+ T cells among PBMC were analyzed using the tetramer staining assay as described previously with peptide-MHC tetramer (H-2Kb-restricted AH1) (the NIH Tetramer Core Facility, Atlanta, GA). On day 22, ELISPOT assay was performed with PBMC from the treated mice as described previously.
We also evaluated a subset of the formulations mentioned above in tumor-bearing mice. When tumor size reached ˜60 mm^3, 2 doses of indicated formulation with 25 μg/dose adAMP(ps)2 were administrated intratumorally on days 10 and 15.

In the case of `O=C1O[C@H]2[C@@H]3OC(=O)c4cc(O)c(O)c(O)c4-c4c(O)c(O)c5oc(=O)c6c(c(O)c(O)c7oc(=O)c4c5c76)-c4c(cc(O)c(O)c4O)C(=O)OC[C@H]3OC(O)[C@@H]2OC(=O)c2cc(O)c(O)c(O)c2-c2c1cc(O)c(O)c2O` (mixture of isomers) [Punicalagin], the “tolerability in in-vitro assay (cellular viability)” value in data set [1] is on record as “well-tolerated”. Also, in data set [2], the “IC50 of DNA-induced Type I IFN response” value was “as low as nanomolar level”.

Turning to `Nc1ncnc2c1ncn2[C@@H]1O[C@@H]2COP(=O)(O)O[C@H]3[C@@H](O)[C@H](n4cnc5c(N)ncnc54)O[C@@H]3COP(=O)(O)O[C@H]2[C@H]1O` [free CDA], in data set [3], the survival rate is 20%. For the compound cdAMP(ps)2 [free CDN], the “AH1 antigen-specific T cell response (ELISPOT)” value in data set [4] (PBMC, day 22, seven days after the 2nd dose) is recorded as “significant”. For the same compound, the complete tumor regression in data set [4] (number of mice out of 5) was 2 out of 5. For the compound `O=C(OC[C@H]1O[C@@H](OC(=O)c2cc(O)c(O)c(OC(=O)c3cc(O)c(O)c(O)c3)c2)[C@H](OC(=O)c2cc(O)c(O)c(OC(=O)c3cc(O)c(O)c(O)c3)c2)[C@@H](OC(=O)c2cc(O)c(O)c(OC(=O)c3cc(O)c(O)c(O)c3)c2)[C@@H]1OC(=O)c1cc(O)c(O)c(OC(=O)c2cc(O)c(O)c(O)c2)c1)c1cc(O)c(O)c(OC(=O)c2cc(O)c(O)c(O)c2)c1` [tannin acid], the “tolerability in in-vitro assay (cellular viability)” value in data set [1] is given as “well-tolerated”. Further, in data set [2], the “IC50 of DNA-induced Type I IFN response” value was “as low as nanomolar level”.

Values taken from patent publication US12622922B2, “Compositions and methods for metal containing formulations capable of modulating immune response” (The Regents of the University of Michigan, priority 2018, dated 2026).
